Consider 24 compounds from ChEMBL document CHEMBL3259560, “Synthesis of xanthone derivatives based on α-mangostin and their biological evaluation for anti-cancer agents” (Bioorg Med Chem Lett, 2014).

Usually IC50 stands for the concentration needed to halve the response being measured.

For data set [1], the system named is NCI-H460. The data set is described as follows: Cytotoxicity against human NCI-H460 cells assessed as inhibition of cell proliferation after 48 hrs by XTT assay. The class given is functional, cell-based. The note with it: NCI-H460, 48 h. A general note: Tetrazolium assays rely on reduction of a dye to a coloured formazan, in cell work by metabolically active cells.

Data set [2] is described as follows: Kinetic solubility of the compound in water containing 5% DMSO at pH 6.8. The class given is physicochemical. Conditions: read-out: Kinetic_solubility.
For data set [3], the system named is MDA-MB-231. The data set is described as follows: Cytotoxicity against human MDA-MB-231 cells assessed as inhibition of cell proliferation after 48 hrs by XTT assay. The class given is functional, cell-based. The note with it: MDA-MB-231, 48 h.
Data set [4] deals with ASPC1. Description: Cytotoxicity against human AsPC1 cells assessed as inhibition of cell proliferation after 48 hrs by XTT assay. In kind it is functional, cell-based. Conditions: ASPC1, 48 h.
Data set [5] concerns SW-620. Description: Cytotoxicity against human SW620 cells assessed as inhibition of cell proliferation after 48 hrs by XTT assay. In kind it is functional, cell-based. Conditions: SW-620, 48 h.
Data set [6] is described as follows: Cytotoxicity against mouse B16F10 cells assessed as inhibition of cell proliferation after 48 hrs by XTT assay. In kind it is functional, cell-based. Conditions: B16-F10, 48 h.

Converted amounts (≈) assume the structure as drawn.

As to `CC(C)=CCc1c(O)cc2oc3cc(O)c(O)c(CC=C(C)C)c3c(=O)c2c1O`, the IC50 in data set [1] turned out to be 4.48 µM; in data set [3] it was 5.87 µM; in data set [4] (read-out: IC50) it was 5.92 µM; in data set [5], 5.69 µM. Further, the solubility kinetic in data set [2] amounted to 94 µM (≈ 37.3 µg/mL).

For the compound `COc1c(OC(C)=O)cc2oc3cc(O)c(CC=C(C)C)c(O)c3c(=O)c2c1CC=C(C)C`, the IC50 came to 12.6 µM in data set [1]; 13.1 µM in data set [6]; 12.9 µM in data set [3]; 13.9 µM in data set [4] (read-out: IC50); 10.9 µM in data set [5]. Further, in data set [2], the solubility kinetic came to 148 µM (≈ 67 µg/mL).

Take `COc1c(OCC(=O)O)cc2oc3cc(O)c(CC=C(C)C)c(O)c3c(=O)c2c1CC=C(C)C`: the IC50 in data set [1] was 54.6 µM; in data set [6] it was 28.6 µM; in data set [3], more than 100 µM; in data set [4] (read-out: IC50), 52.8 µM; in data set [5] it was 46.6 µM.

`COc1c(OCC(=O)O)cc2oc3cc(OCC(=O)O)c(CC=C(C)C)c(O)c3c(=O)c2c1CC=C(C)C`: the half-maximal inhibitory concentration (IC50) in data set [1] was more than 100 µM; in data set [6], 95.8 µM; in data set [3], more than 100 µM; in data set [4] (read-out: IC50), more than 100 µM; in data set [5] it was more than 100 µM.

With `C=CCOc1cc2oc3cc(O)c(CC=C(C)C)c(O)c3c(=O)c2c(CC=C(C)C)c1OC`, the IC50 in data set [1] stood at 12.2 µM; in data set [6] it was 16.5 µM; in data set [3], 17.9 µM; in data set [4] (read-out: IC50) it was 21.3 µM; in data set [5], 12.1 µM. The solubility kinetic in data set [2] worked out at 149 µM (≈ 67.1 µg/mL).

Turning to `COc1c(OS(=O)(=O)C(F)(F)F)cc2oc3cc(OS(=O)(=O)C(F)(F)F)c(CC=C(C)C)c(O)c3c(=O)c2c1CC=C(C)C`, the IC50 turned out to be 22.4 µM in data set [1]; 15.3 µM in data set [6]; 16.9 µM in data set [3]; 13.8 µM in data set [4] (read-out: IC50); 9.01 µM in data set [5].

Consider `C=CCOc1cc2oc3cc(OC)c(CC=C(C)C)c(O)c3c(=O)c2c(CC=C(C)C)c1OC`, for which the IC50 in data set [1], in data set [6], in data set [3], in data set [4] (read-out: IC50) and in data set [5] was more than 100 µM in each case.

As to `C=CCOc1cc2oc3cc(OCC=C)c(OC)c(CC=C(C)C)c3c(=O)c2c(OC)c1CC=C(C)C`, the IC50 in data set [1] is 14.6 µM; in data set [6], 41 µM; in data set [3], 28 µM; in data set [4] (read-out: IC50), 25.8 µM; in data set [5], 44.6 µM.

`COc1c(O)cc2oc3cc(O)c(CC=C(C)C)c(OC)c3c(=O)c2c1CC=C(C)C`: the IC50 came out at 10.8 µM in data set [1]; 16.6 µM in data set [6]; 20.8 µM in data set [3]; 13.9 µM in data set [4] (read-out: IC50); 18.2 µM in data set [5]. Also, in data set [2], the solubility kinetic turned out to be 104 µM (≈ 44.1 µg/mL).

Consider `COc1ccc2oc3cc(O)c(CCC(C)C)c(O)c3c(=O)c2c1CCC(C)C`, for which the IC50 in data set [1], in data set [6], in data set [3], in data set [4] (read-out: IC50) and in data set [5] was more than 100 µM in each case.

With `COc1ccc2oc3ccc(CCC(C)C)c(O)c3c(=O)c2c1CCC(C)C`, the IC50 in data set [1], in data set [6], in data set [3], in data set [4] (read-out: IC50) and in data set [5] was more than 100 µM in each case.

Regarding `COc1c(N)cc2oc3ccc(CCC(C)C)c(O)c3c(=O)c2c1CCC(C)C`, the half-maximal inhibitory concentration (IC50) in data set [1] stood at 17.6 µM; in data set [6] it was 14.4 µM; in data set [3], 30.9 µM; in data set [4] (read-out: IC50) it was 31.3 µM; in data set [5], 15.9 µM. Further, in data set [2], the solubility kinetic amounted to 138 µM (≈ 54.9 µg/mL).

`COc1c(O)cc2oc3cc(O)c(CCC(C)C)c(O)c3c(=O)c2c1CCC(C)C`: the IC50 in data set [1] was 4.17 µM; in data set [6], 6.54 µM; in data set [3], 4.91 µM; in data set [4] (read-out: IC50) it was 4.64 µM; in data set [5] it was 6.42 µM. Moreover, the solubility kinetic in data set [2] worked out at 78 µM (≈ 32.3 µg/mL).

As to `COc1c(O)cc2oc3c([N+](=O)[O-])c(O)c(CCC(C)C)c(O)c3c(=O)c2c1CCC(C)C`, the IC50 was 16.8 µM in data set [1], 29 µM in data set [3], 31.8 µM in data set [4] (read-out: IC50) and 22.6 µM in data set [5]. For the same compound, in data set [2], the solubility kinetic is 339 µM (≈ 156 µg/mL).

On to `COc1c(O)cc2oc3c(N)c(O)c(CCC(C)C)c(O)c3c(=O)c2c1CCC(C)C`, for which the IC50 came out at 15.1 µM in data set [1]; 12.3 µM in data set [6]; 17.6 µM in data set [3]; 13 µM in data set [4] (read-out: IC50); 6.24 µM in data set [5].

In the case of `COc1c(O)cc2oc3c(Cl)c(O)c(CCC(C)C)c(O)c3c(=O)c2c1CCC(C)C`, the IC50 came out at 9.96 µM in data set [1]; 12.4 µM in data set [6]; 10.1 µM in data set [3]; 19.3 µM in data set [4] (read-out: IC50); 9.59 µM in data set [5]. In addition, the solubility kinetic in data set [2] is 381 µM (≈ 171 µg/mL).

As to `C#CCOc1c(O)cc2oc3cc(O)c(CC=C(C)C)c(O)c3c(=O)c2c1CC=C(C)C`, the IC50 in data set [1], in data set [3], in data set [4] (read-out: IC50) and in data set [5] was more than 100 µM in each case.

Consider `CC(C)=CCc1c(O)cc2oc3cc(O)c(OCc4cn(CC(=O)OC(C)(C)C)nn4)c(CC=C(C)C)c3c(=O)c2c1O`, for which the IC50 in data set [1], in data set [3], in data set [4] (read-out: IC50) and in data set [5] was more than 100 µM throughout.

As for `C=CCOc1cc2oc3cc(OCC=C)c(OC)c(CC=C(C)C)c3c(=O)c2c(O)c1CC=C(C)C`, the IC50 in data set [1], in data set [6], in data set [3], in data set [4] (read-out: IC50) and in data set [5] was more than 100 µM in each case.

With `COc1c(O)cc2oc3cc4c(c(O)c3c(=O)c2c1CC=C(C)C)CCC(C)(C)O4`, the IC50 in data set [1], in data set [6], in data set [3], in data set [4] (read-out: IC50) and in data set [5] was more than 100 µM each time.

Consider `COc1c(OC(C)=O)cc2oc3cc(OC(C)=O)c(CC=C(C)C)c(O)c3c(=O)c2c1CC=C(C)C`, for which the IC50 in data set [1] stood at 12.5 µM; in data set [6] it was 15.1 µM; in data set [3], 17.4 µM; in data set [4] (read-out: IC50), 14.2 µM; in data set [5] it was 22.7 µM. Moreover, the solubility kinetic in data set [2] is 122 µM (≈ 60.3 µg/mL).

Turning to `COc1cccc2c1C(=O)c1c(O)c3c(c(O)c1C2=O)C[C@@](O)(C(=O)CO)C[C@@H]3O[C@H]1C[C@H](N)[C@H](O)[C@H](C)O1` [DOXORUBICIN], the IC50 in data set [1] amounted to 0.08 µM; in data set [6], 0.12 µM; in data set [3], 0.98 µM; in data set [4], 1.87 µM; in data set [5] it was 0.12 µM.

With `COc1c(O)cc2oc3cc4c(c(O)c3c(=O)c2c1CC=C(C)C)C=CC(C)(C)O4` [MANGOSTANIN], the IC50 in data set [1] was 19.7 µM; in data set [6] it was 26.2 µM; in data set [3], 21.1 µM; in data set [4] (read-out: IC50), 25.5 µM; in data set [5], 26.1 µM.

Consider `COc1c(O)cc2oc3cc(O)c(CC=C(C)C)c(O)c3c(=O)c2c1CC=C(C)C` [MANGOSTIN], for which the IC50 was 3.23 µM in data set [1]; 3.23 µM in data set [6]; 3.04 µM in data set [3]; 4.02 µM in data set [4] (read-out: IC50); 2.97 µM in data set [5]. Further, the solubility kinetic in data set [2] was 20 µM (≈ 8.21 µg/mL).
